According to ChEMBL document CHEMBL1201862, “PubChem BioAssay data set” (2004):
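Protocol summary: plate cells (96-well), add compound at 5 concentrations, incubate 48 h, interpolate endpoints linearly. At the GI50, growth is halved.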 Active and inactive are the calls of the source. Cut-off read from the data, not from the text of the source: active = GI50 up to about 1.1 µM and inactive = higher.

What was measured:
Test in all cases: NCI-60 cell line screen, 48 h
[1] = tested on: 786-0
[2] = tested on: A498
[3] = tested on: DU-145
[4] = tested on: HCT-116
[5] = tested on: HT-29
[6] = tested on: KM12
[7] = tested on: M14
[8] = tested on: MDA-N
[9] = tested on: OVCAR-3
[10] = tested on: PC-3
[11] = tested on: SF-539
[12] = tested on: SK-MEL-28
[13] = tested on: SK-MEL-2
[14] = tested on: SN12C
[15] = tested on: SNB-19
[16] = tested on: T47D
[17] = tested on: TK-10
[18] = tested on: UACC-257
[19] = tested on: UACC-62

## Cc1c([N+](=O)[O-])oc2ccc3ccccc3c12
[1]
  GI50: 18.1 µM (inactive)
[2]
  GI50: 22.8 µM (inactive)
[3]
  GI50: 7.74 µM (inactive)
[4]
  GI50: 4.26 µM (inactive)
[5]
  GI50: 14.6 µM (inactive)
[6]
  GI50: 29.9 µM (inactive)
[7]
  GI50: 21.5 µM (inactive)
[8]
  GI50: 26.9 µM (inactive)
[9]
  GI50: > 100 µM (inactive)
[10]
  GI50: 86.9 µM (inactive)
[11]
  GI50: 28.2 µM (inactive)
[12]
  GI50: > 100 µM (inactive)
[13]
  GI50: > 100 µM (inactive)
[14]
  GI50: 12.5 µM (inactive)
[15]
  GI50: > 100 µM (inactive)
[16]
  GI50: 61.1 µM (inactive)
[17]
  GI50: 37.8 µM (inactive)
[18]
  GI50: 78 µM (inactive)
[19]
  GI50: 56.1 µM (inactive)

## CC(C)(C)c1cc(C2NCCO2)cc(C(C)(C)C)c1O (centres undefined)
[1]
  GI50: 65.8 µM (inactive)
[2]
  GI50: > 100 µM (inactive)
[3]
  GI50: > 100 µM (inactive)
[4]
  GI50: > 100 µM (inactive)
[5]
  GI50: > 100 µM (inactive)
[6]
  GI50: > 100 µM (inactive)
[8]
  GI50: > 100 µM (inactive)
[9]
  GI50: > 100 µM (inactive)
[10]
  GI50: 82 µM (inactive)
[11]
  GI50: > 100 µM (inactive)
[12]
  GI50: > 100 µM (inactive)
[13]
  GI50: 35.2 µM (inactive)
[14]
  GI50: 89.7 µM (inactive)
[16]
  GI50: 0.0538 µM (active)
[17]
  GI50: 37.1 µM (inactive)
[18]
  GI50: > 100 µM (inactive)
[19]
  GI50: > 100 µM (inactive)

## Clc1ccccc1/C=C/c1nsc(/C=C/c2ccccc2Cl)n1
[1]
  GI50: 19 µM (inactive)
[2]
  GI50: > 100 µM (inactive)
[3]
  GI50: > 100 µM (inactive)
[4]
  GI50: 34.8 µM (inactive)
[5]
  GI50: 35.2 µM (inactive)
[6]
  GI50: 88.9 µM (inactive)
[7]
  GI50: 70.6 µM (inactive)
[8]
  GI50: 35 µM (inactive)
[9]
  GI50: 40.1 µM (inactive)
[10]
  GI50: 30.1 µM (inactive)
[11]
  GI50: 78.5 µM (inactive)
[12]
  GI50: > 100 µM (inactive)
[13]
  GI50: > 100 µM (inactive)
[14]
  GI50: 23.6 µM (inactive)
[15]
  GI50: > 100 µM (inactive)
[16]
  GI50: 10.4 µM (inactive)
[17]
  GI50: 30.8 µM (inactive)
[18]
  GI50: 26.5 µM (inactive)

## COc1ccc(N)c(C(=O)CCNC(C)=O)c1 [KINURENAMINE]
[1]
  GI50: > 100 µM (inactive)
[2]
  GI50: > 100 µM (inactive)
[3]
  GI50: > 100 µM (inactive)
[4]
  GI50: > 100 µM (inactive)
[5]
  GI50: > 100 µM (inactive)
[6]
  GI50: > 100 µM (inactive)
[7]
  GI50: > 100 µM (inactive)
[8]
  GI50: > 100 µM (inactive)
[9]
  GI50: > 100 µM (inactive)
[10]
  GI50: > 100 µM (inactive)
[11]
  GI50: > 100 µM (inactive)
[13]
  GI50: > 100 µM (inactive)
[14]
  GI50: > 100 µM (inactive)
[15]
  GI50: > 100 µM (inactive)
[16]
  GI50: > 100 µM (inactive)
[17]
  GI50: > 100 µM (inactive)
[18]
  GI50: > 100 µM (inactive)
[19]
  GI50: > 100 µM (inactive)

## CC1OC(O[C@H]2CC[C@]3(C)[C@H]4CC=C5[C@@H]6[C@@H](C)[C@H](C)CC[C@]6(C(=O)O)CC[C@@]5(C(=O)O)[C@]4(C)CC[C@H]3C2(C)C)C(O)C(O)C1O (some centres undefined)
[1]
  GI50: > 75 µM (inactive)
[2]
  GI50: > 75 µM (inactive)
[3]
  GI50: > 75 µM (inactive)
[4]
  GI50: > 75 µM (inactive)
[6]
  GI50: > 75 µM (inactive)
[7]
  GI50: > 75 µM (inactive)
[8]
  GI50: > 75 µM (inactive)
[9]
  GI50: > 75 µM (inactive)
[10]
  GI50: > 75 µM (inactive)
[11]
  GI50: > 75 µM (inactive)
[13]
  GI50: > 75 µM (inactive)
[14]
  GI50: > 75 µM (inactive)
[15]
  GI50: > 75 µM (inactive)
[16]
  GI50: > 75 µM (inactive)
[17]
  GI50: > 75 µM (inactive)
[18]
  GI50: > 75 µM (inactive)
[19]
  GI50: > 75 µM (inactive)
